This note sets out measurements from patent US11566007B2, “Ras inhibitors” (Revolution Medicines, Inc., priority 2019, dated 2023).

Experiment [1] concerns NCI-H358 (K-Ras G12C). Briefly: CellTiter-Glo cell viability assay, NCI-H358. It counts as cell-based, human. The following applies: Homo sapiens, NCI-H358, 120 h, NCI-H358, 5-day treatment; class symbols; read-out: Additional H358 Cell Viability assay data (K-Ras G12C, IC50). The procedure, abridged:
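Luminescent viability readout on day 5 after direct compound addition to plated cells; plates sat ~30 min at room temperature before reading. Values expressed as percent of mean DMSO signal, curves fit with a four-parameter logistic model.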

The target in experiment [2] is K-Ras G12C (Homo sapiens (Human), UniProt P01116+P62937, G12C). In words: Ras-Raf (BRAF RBD) disruption / FRET / MOA assay, KRAS G12C. As to conditions: KRAS G12C; Ras-Raf disruption/FRET/MOA assay; read-out: IC50* KRAS G12C FRET data. The class given is biochemical. In outline: (§1)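 Ternary complex formation (Ras–compound–cyclophilin A) displacing BRAF RBD, monitored by TR-FRET. Three hours at 25° C with compound (top 30 μM final), then 1.5 h with the labelled antibodies. Lower ratio than DMSO indicates disruption; IC50 reported.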
Sequence of K-Ras G12C (P01116-2 other isoform, or with tags, fused parts or gaps G12C): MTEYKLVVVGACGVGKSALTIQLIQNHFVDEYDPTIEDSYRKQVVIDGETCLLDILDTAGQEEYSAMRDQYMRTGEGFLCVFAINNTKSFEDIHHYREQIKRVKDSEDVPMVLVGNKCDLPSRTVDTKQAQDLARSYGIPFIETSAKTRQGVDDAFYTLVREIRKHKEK
Sequence of K-Ras G12C (P62937 whole entry): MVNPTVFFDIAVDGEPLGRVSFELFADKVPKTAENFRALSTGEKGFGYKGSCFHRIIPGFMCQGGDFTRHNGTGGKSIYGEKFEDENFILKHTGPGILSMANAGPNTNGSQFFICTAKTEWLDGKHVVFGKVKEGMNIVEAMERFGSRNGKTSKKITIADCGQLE

Experiment [3] deals with K-Ras G13C (Homo sapiens (Human), UniProt P01116+P62937, G13C). In words: Ras-Raf (BRAF RBD) disruption / FRET / MOA assay, KRAS G13C. As to conditions: KRAS G13C; Ras-Raf disruption/FRET/MOA assay; read-out: IC50* KRAS G13C FRET data. The class given is biochemical. In outline: as §1
Sequence of K-Ras G13C (P01116-2 other isoform, or with tags, fused parts or gaps G13C): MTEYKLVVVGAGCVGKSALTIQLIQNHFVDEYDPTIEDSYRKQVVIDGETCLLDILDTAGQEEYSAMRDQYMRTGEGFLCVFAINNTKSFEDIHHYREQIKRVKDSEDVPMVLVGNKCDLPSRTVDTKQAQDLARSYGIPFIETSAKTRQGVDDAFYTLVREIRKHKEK
Sequence of K-Ras G13C (P62937 whole entry): as the sequence (P62937 whole entry) above
For experiment [4], the target named is KRAS G12D (Homo sapiens (Human), UniProt P01116+P62937, G12D). Briefly: Ras-Raf (BRAF RBD) disruption / FRET / MOA assay, KRAS G12D. As to conditions: Ras-Raf disruption/FRET/MOA assay; class symbols; read-out: KRAS G12D FRET data IC50. The class given is biochemical. In outline:
as §1

Experiment [5] concerns the target KRAS G12V (Homo sapiens (Human), UniProt P01116+P62937, G12V). Briefly: Ras-Raf (BRAF RBD) disruption / FRET / MOA assay, KRAS G12V. It counts as biochemical. The following applies: read-out: IC50* KRAS G12V FRET data. The procedure, abridged:
as §1

The target in experiment [6] is KRAS WT (Homo sapiens (Human), UniProt P01116+P62937). In words: Ras-Raf (BRAF RBD) disruption / FRET / MOA assay, KRAS WT. It counts as biochemical. As to conditions: read-out: IC50* KRAS WT FRET data. The procedure, abridged: as §1
Sequence of KRAS WT (P01116-2 other isoform, or with tags, fused parts or gaps): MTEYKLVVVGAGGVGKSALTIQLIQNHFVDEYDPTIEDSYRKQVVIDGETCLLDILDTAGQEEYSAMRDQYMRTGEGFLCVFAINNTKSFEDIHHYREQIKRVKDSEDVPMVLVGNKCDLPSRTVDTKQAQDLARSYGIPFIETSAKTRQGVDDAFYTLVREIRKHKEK
Sequence of KRAS WT (P62937 whole entry): as the sequence (P62937 whole entry) above
Experiment [7] concerns the target KRAS G13D (Homo sapiens (Human), UniProt P01116+P62937, G13D). Briefly: Ras-Raf (BRAF RBD) disruption / FRET / MOA assay, KRAS G13D. The class given is biochemical. The following applies: read-out: IC50* KRAS G13D FRET data. The procedure, abridged: as §1
Experiment [8] deals with KRAS Q61H (Homo sapiens (Human), UniProt P01116+P62937, Q61H). Briefly: Ras-Raf (BRAF RBD) disruption / FRET / MOA assay, KRAS Q61H. The class given is biochemical. As to conditions: Ras-Raf disruption/FRET/MOA assay; class symbols; read-out: KRAS Q61H FRET data IC50. In outline:
(§2)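 Compounds were tested as a 10-point 3-fold dilution series from 30 μM final for their ability to drive ternary complex formation between nucleotide-loaded Ras and cyclophilin A, displacing the BRAF RBD. After 3 h at 25° C., anti-His Eu-W1024 (10 nM) and anti-GST allophycocyanin (50 nM) were added for 1.5 h. A TR-FRET ratio decrease versus DMSO gave IC50.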

The target of experiment [9] is NRAS Q61R (Homo sapiens (Human), UniProt P01111+P62937, Q61R). In words: Ras-Raf (BRAF RBD) disruption / FRET / MOA assay, NRAS Q61R. The class given is biochemical. As to conditions: NRAS Q61R; Ras-Raf disruption/FRET/MOA assay; read-out: IC50* NRAS Q61R FRET data. In outline: as §2
Sequence of NRAS Q61R (P01111 whole entry Q61R): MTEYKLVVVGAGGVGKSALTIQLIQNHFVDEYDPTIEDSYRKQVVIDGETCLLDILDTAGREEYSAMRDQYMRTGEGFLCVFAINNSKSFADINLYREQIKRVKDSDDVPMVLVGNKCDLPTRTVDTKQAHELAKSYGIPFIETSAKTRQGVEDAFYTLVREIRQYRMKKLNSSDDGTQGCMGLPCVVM
Sequence of NRAS Q61R (P62937 whole entry): as the sequence (P62937 whole entry) above
Experiment [10] has as its target NRAS WT (Homo sapiens (Human), UniProt P01111+P62937). In words: Ras-Raf (BRAF RBD) disruption / FRET / MOA assay, NRAS WT. It counts as biochemical. The following applies: read-out: IC50* NRAS WT FRET data. The procedure, abridged:
as §2

SMILES strings stand for the structures.

Sequence of KRAS G12V (P01116-2 other isoform, or with tags, fused parts or gaps G12V): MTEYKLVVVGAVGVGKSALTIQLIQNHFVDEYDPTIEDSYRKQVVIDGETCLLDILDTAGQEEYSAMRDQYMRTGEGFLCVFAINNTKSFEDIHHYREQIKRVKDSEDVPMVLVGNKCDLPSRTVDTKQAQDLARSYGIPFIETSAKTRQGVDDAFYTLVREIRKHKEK
Sequence of KRAS G12V (P62937 whole entry): as the sequence (P62937 whole entry) above
Sequence of KRAS Q61H (P01116-2 other isoform, or with tags, fused parts or gaps Q61H): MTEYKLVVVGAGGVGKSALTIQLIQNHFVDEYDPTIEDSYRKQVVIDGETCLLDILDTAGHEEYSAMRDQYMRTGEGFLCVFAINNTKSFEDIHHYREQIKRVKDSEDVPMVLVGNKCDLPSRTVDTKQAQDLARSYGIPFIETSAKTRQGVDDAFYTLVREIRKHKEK
Sequence of KRAS Q61H (P62937 whole entry): as the sequence (P62937 whole entry) above
Sequence of NRAS WT (P01111 whole entry): as the sequence (P01111 whole entry Q61R) above, with R61Q counted along it
Sequence of NRAS WT (P62937 whole entry): as the sequence (P62937 whole entry) above
Sequence of KRAS G13D (P01116-2 other isoform, or with tags, fused parts or gaps G13D): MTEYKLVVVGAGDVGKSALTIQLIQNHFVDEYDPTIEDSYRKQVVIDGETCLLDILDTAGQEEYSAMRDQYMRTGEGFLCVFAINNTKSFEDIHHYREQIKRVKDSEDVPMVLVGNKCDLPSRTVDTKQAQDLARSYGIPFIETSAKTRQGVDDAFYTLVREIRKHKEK
Sequence of KRAS G13D (P62937 whole entry): as the sequence (P62937 whole entry) above
Sequence of KRAS G12D (P01116-2 other isoform, or with tags, fused parts or gaps G12D): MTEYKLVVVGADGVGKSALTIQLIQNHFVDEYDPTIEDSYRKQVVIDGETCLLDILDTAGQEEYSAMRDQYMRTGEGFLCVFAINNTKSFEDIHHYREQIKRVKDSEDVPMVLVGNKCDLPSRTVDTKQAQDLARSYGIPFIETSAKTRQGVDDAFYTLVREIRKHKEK
Sequence of KRAS G12D (P62937 whole entry): as the sequence (P62937 whole entry) above

Consider `C=CC(=O)N1CC[C@H](C(=O)N(C)[C@H](C(=O)N[C@H]2Cc3cccc(c3)-c3ccc4c(c3)c(c(-c3cc5c(nc3[C@H](C)OC)CCN(C)C5)n4CC)CC(C)(C)COC(=O)[C@@H]3CCCN(N3)C2=O)C(C)C)C1` (atropisomer, axis not shown) [Example A461], for which the IC50 (in general, the concentration that inhibits the measured activity by half) in experiment [1] is < 0.01 µM; in experiment [2] it was 0.1 to 1 µM; in [3], 1 to 10 µM; in [4], > 10 µM; in experiment [5], 1 to 10 µM; in experiment [6] it was 1 to 10 µM. Moreover, the IC50 is > 10 µM in [7], 1 to 10 µM in experiment [8], 1 to 10 µM in experiment [9] and 1 to 10 µM in experiment [10].
On to `C=CC(=O)N(C)C1CN(C(=O)N(C)[C@H](C(=O)N[C@H]2Cc3nc(cs3)-c3ccc4c(c3)c(c(-c3cccnc3[C@H](C)OC)n4CC)CC(C)(C)COC(=O)[C@@H]3CCCN(N3)C2=O)C(C)C)C1` (atropisomer, axis not shown) [Example A463], for which the IC50 in [1] is < 0.01 µM; in [2] it was 0.01 to 0.1 µM; in experiment [3], 0.1 to 1 µM; in [4], 1 to 10 µM; in experiment [5], 0.1 to 1 µM; in [6], 0.1 to 1 µM. Moreover, the IC50 in experiment [7] was 0.1 to 1 µM; in experiment [8] it was 0.01 to 0.1 µM; in experiment [9], 0.1 to 1 µM; in [10], 0.1 to 1 µM.
For `C=CC(=O)N1CC[C@H](C(=O)N(C)[C@H](C(=O)N[C@H]2Cc3nc(cs3)-c3ccc4c(c3)c(c(-c3cc5c(nc3[C@H](C)OC)CCN(C)C5)n4CC)CC(C)(C)COC(=O)[C@@H]3CCCN(N3)C2=O)C(C)C)C1` (atropisomer, axis not shown) [Example A472], the IC50 in [1] was < 0.01 µM; in experiment [2], 0.1 to 1 µM; in experiment [3] it was 1 to 10 µM; in experiment [4] it was > 10 µM; in experiment [5], 1 to 10 µM; in [6] it was 1 to 10 µM. The IC50 in experiment [7], in experiment [8], in [9] and in [10] was 1 to 10 µM each time.
With `C=CC(=O)N1CC[C@H](C(=O)N(C)[C@H](C(=O)N[C@H]2Cc3cc(C)cc(c3)-c3ccc4c(c3)c(c(-c3cccnc3[C@H](C)OC)n4CC)CC(C)(C)COC(=O)[C@@H]3CCCN(N3)C2=O)C(C)C)C1` (atropisomer, axis not shown) [Example A498], the IC50 is 0.01 to 0.1 µM in experiment [1]; 0.1 to 1 µM in experiment [2]; 1 to 10 µM in [3]; > 10 µM in experiment [4]; 1 to 10 µM in experiment [5]; 1 to 10 µM in experiment [6]. The IC50 in [7] was > 10 µM; in experiment [8], 1 to 10 µM; in experiment [9], 1 to 10 µM; in experiment [10] it was 1 to 10 µM.
On to `C=CC(=O)N1CC[C@H](C(=O)N(C)[C@H](C(=O)N[C@H]2Cc3cccc(c3)-c3ccc4c(c3)c(c(-c3cccnc3[C@H](C)OC)n4CC#CC)CC(C)(C)COC(=O)[C@@H]3CCCN(N3)C2=O)C(C)C)C1` (atropisomer, axis not shown) [Example A531], for which the IC50 in [1] is 0.01 to 0.1 µM; in [2], 0.1 to 1 µM; in experiment [3], 1 to 10 µM; in experiment [4] it was > 10 µM; in [5] it was 1 to 10 µM; in experiment [6] it was 1 to 10 µM. In addition, the IC50 in [7] is > 10 µM; in experiment [8], 1 to 10 µM; in experiment [9] it was 1 to 10 µM; in [10] it was 1 to 10 µM.
Turning to `C=CC(=O)N1CCOC2(C1)CN(C(=O)N(C)[C@H](C(=O)N[C@H]1Cc3cccc(c3)-c3ccc4c(c3)c(c(-c3cccnc3[C@H](C)OC)n4CC(F)(F)F)CC(C)(C)COC(=O)[C@@H]3CCCN(N3)C1=O)C(C)C)C2` (atropisomer, axis not shown) [Example A538], the IC50 in experiment [1] lay within 0.01 to 0.1 µM; in experiment [2], 0.01 to 0.1 µM; in [3], 0.01 to 0.1 µM; in [4], 1 to 10 µM; in experiment [5], 0.1 to 1 µM; in experiment [6], 0.1 to 1 µM. For the same compound, the IC50 in [7], in experiment [8], in experiment [9] and in experiment [10] was 0.1 to 1 µM in each case.
For `CO[C@@H](C)c1ncccc1-c1c2c3cc(ccc3n1CC(F)(F)F)-c1cccc(c1)C[C@H](NC(=O)[C@H](C(C)C)N(C)C(=O)N1CCC3(CC1)CN(C(=O)/C=C/CN(C)C)C3)C(=O)N1CCC[C@H](N1)C(=O)OCC(C)(C)C2` (atropisomer, axis not shown) [Example A555], the IC50 in experiment [1] is 0.01 to 0.1 µM; in [2] it was 0.1 to 1 µM; in experiment [3] it was 0.01 to 0.1 µM; in [4] it was 0.1 to 1 µM; in experiment [5], 0.1 to 1 µM; in [6] it was 0.1 to 1 µM. Moreover, the half-inhibitory concentration (IC50) in experiment [7], in [8], in [9] and in [10] was 0.1 to 1 µM in each case.
Consider `CCn1c(-c2cccnc2[C@H](C)OC)c2c3cc(ccc31)-c1cccc(c1)C[C@H](NC(=O)[C@H](C(C)C)N1CC[C@@]3(CCN(C(=O)C#C[C@H]4COCCN4C4COC4)C3)C1=O)C(=O)N1CCC[C@H](N1)C(=O)OCC(C)(C)C2` (atropisomer, axis not shown) [Example A567], for which the IC50 is < 0.01 µM in experiment [1]; 0.01 to 0.1 µM in [2]; 0.1 to 1 µM in experiment [3]; 1 to 10 µM in experiment [4]; 1 to 10 µM in experiment [5]; 1 to 10 µM in [6]. The half-inhibitory concentration (IC50) lay in the range of 1 to 10 µM in experiment [7], 0.1 to 1 µM in [8], 1 to 10 µM in [9] and 1 to 10 µM in experiment [10].
For the compound `C=CC(=O)N1CCO[C@H]2CN(C(=O)N(C)[C@H](C(=O)N[C@H]3Cc4coc(n4)-c4ccc5c(c4)c(c(-c4cccnc4[C@H](C)OC)n5CC(F)(F)F)CC(C)(C)COC(=O)[C@@H]4CCCN(N4)C3=O)C(C)C)C[C@H]21` (atropisomer, axis not shown) [Example A574], the IC50 in [1] is 0.01 to 0.1 µM; in [2] it was 0.1 to 1 µM; in experiment [3], 0.01 to 0.1 µM; in experiment [4], > 10 µM; in experiment [5], 1 to 10 µM; in experiment [6], 1 to 10 µM. Further, the IC50 in experiment [7] lay within 1 to 10 µM; in experiment [8] it was 0.1 to 1 µM; in experiment [9], 1 to 10 µM; in [10] it was 1 to 10 µM.
For `C=CC(=O)N1C[C@@H](N(C)C(=O)N(C)[C@H](C(=O)N[C@H]2Cc3nc(cs3)-c3ccc4c(c3)c(c(-c3cccnc3[C@H](C)OC)n4CC)CC(C)(C)COC(=O)[C@@H]3CCCN(N3)C2=O)C(C)C)[C@@H](C)C1` (atropisomer, axis not shown) [Example A583], the IC50 in experiment [1] fell in the range of 0.01 to 0.1 µM; in [2], 0.1 to 1 µM; in experiment [3], 0.1 to 1 µM; in experiment [4], 1 to 10 µM; in [5], 1 to 10 µM; in experiment [6] it was 0.1 to 1 µM. Also, the IC50 is 1 to 10 µM in experiment [7], 0.1 to 1 µM in [8], 0.1 to 1 µM in experiment [9] and 0.1 to 1 µM in [10].
With `C=CC(=O)N1C[C@H](C)N(C(=O)N(C)[C@H](C(=O)N[C@H]2Cc3nc(cs3)-c3ccc4c(c3)c(c(-c3cccnc3[C@H](C)OC)n4CC)CC(C)(C)COC(=O)[C@@H]3CCCN(N3)C2=O)C(C)C)CC12CC2` (atropisomer, axis not shown) [Example A586], the IC50 in experiment [1] lay in the range of 0.01 to 0.1 µM; in [2] it was 0.1 to 1 µM; in [3], 0.1 to 1 µM; in experiment [4], 1 to 10 µM; in experiment [5], 0.1 to 1 µM; in experiment [6], 0.1 to 1 µM. In addition, the IC50 lay in the range of 1 to 10 µM in experiment [7], 0.01 to 0.1 µM in experiment [8], 0.1 to 1 µM in experiment [9] and 0.1 to 1 µM in experiment [10].
